Legend:
[1] = molecular target: T1, ATP-binding cassette sub-family C member 2 (Rattus norvegicus, UniProt Q63120); test: TP_TRANSPORTER: inhibition of DNP-SG uptake in bile canalicular membrane vesicles from SD rat; format: functional, cell membranes, Sprague-Dawley, Bile canalicular membrane vesicle
[2] = molecular target: T1, ATP-binding cassette sub-family C member 2; test: TP_TRANSPORTER: inhibition of 5-methyltetrahydrofolate uptake in bile canalicular membrane vesicles from SD rat; format: functional, cell membranes, Sprague-Dawley, Bile canalicular membrane vesicle
[3] = substrate: CN1c2c(nc(N)[nH]c2=O)NC[C@@H]1CNc1ccc(C(=O)N[C@@H](CCC(=O)O)C(=O)O)cc1; test: cells, lysate or membranes named

Molecule	Ki [1] [µM]	further results
Nc1nc2c(c(=O)[nH]1)N1CN(c3ccc(C(=O)N[C@@H](CCC(=O)O)C(=O)O)cc3)CC1CN2 (stereo not given in full) [FOLITIXORIN]	269	
CN1c2c(nc(N)[nH]c2=O)NC[C@@H]1CNc1ccc(C(=O)N[C@@H](CCC(=O)O)C(=O)O)cc1 [LEVOMEFOLIC ACID]	121	
Nc1nc2c(c(=O)[nH]1)NC(CNc1ccc(C(=O)N[C@@H](CCC(=O)O)C(=O)O)cc1)CN2 (stereo not given in full) [TETRAHYDROFOLATE]	358	
N[C@@H](CCC(=O)N[C@H](CSc1ccc([N+](=O)[O-])cc1[N+](=O)[O-])C(=O)NCC(=O)O)C(=O)O		Ki [2]: 34.5 µM
ATP-binding cassette sub-family C member 2 (Rattus norvegicus) (protein) MDKFCNSTFWDLSLLESPEADLPLCFEQTVLVWIPLGFLWLLAPWQLYSVYRSRTKRSSITKFYLAKQVFVVFLLILAAIDLSLALTEDTGQATVPPVRYTNPILYLCTWLLVLAVQHSRQWCVRKNSWFLSLFWILSVLCGVFQFQTLIRALLKDSKSNMAYSYLFFVSYGFQIVLLILTAFSGPSDSTQTPSVTASFLSSITFSWYDRTVLKGYKHPLTLEDVWDIDEGFKTRSVTSKFEAAMTKDLQKARQAFQRRLQKSQRKPEATLHGLNKKQSQSQDVLVLEEAKKKSEKTTKDYPKSWLIKSLFKTFHVVILKSFILKLIHDLLVFLNPQLLKLLIGFVKSSNSYVWFGYICAILMFAVTLIQSFCLQSYFQHCFVLGMCVRTTVMSSIYKKALTLSNLARKQYTIGETVNLMSVDSQKLMDATNYMQLVWSSVIQITLSIFFLWRELGPSILAGVGVMVLLIPVNGVLATKIRNIQVQNMKNKDKRLKIMNEILSGIKILKYFAWEPSFQEQVQGIRKKELKNLLRFGQLQSLLIFILQITPILVSVVTFSVYVLVDSANVLNAEKAFTSITLFNILRFPLSMLPMVTSSILQASVSVDRLERYLGGDDLDTSAIRRVSNFDKAVKFSEASFTWDPDLEATIQDVNLDIKPGQLVAVVGTVGSGKSSLVSAMLGEMENVHGHITIQGSTAYVPQQSWIQNGTIKDNILFGSEYNEKKYQQVLKACALLPDLEILPGGDMAEIGEKGINLSGGQKQRVSLARAAYQDADIYILDDPLSAVDAHVGKHIFNKVVGPNGLLAGKTRIFVTHGIHFLPQVDEIVVLGKGTILEKGSYRDLLDKKGVFARNWKTFMKHSGPEGEATVNNDSEAEDDDDGLIPTMEEIPEDAASLAMRRENSLRRTLSRSSRSSSRRGKSLKNSLKIKNVNVLKEKEKEVEGQKLIKKEFVETGKVKFSIYLKYLQAVGWWSILFIILFYGLNNVAFIGSNLWLSAWTSDSDNLNGTNNSSSHRDMRIGVFGALGLAQGICLLISTLWSIYACRNASKALHGQLLTNILRAPMRFFDTTPTGRIVNRFSGDISTVDDLLPQTLRSWMMCFFGIAGTLVMICMATPVFAIIIIPLSILYISVQVFYVATSRQLRRLDSVTKSPIYSHFSETVTGLPIIRAFEHQQRFLAWNEKQIDINQKCVFSWITSNRWLAIRLELVGNLVVFCSALLLVIYRKTLTGDVVGFVLSNALNITQTLNWLVRMTSEAETNIVAVERISEYINVENEAPWVTDKRPPADWPRHGEIQFNNYQVRYRPELDLVLKGITCNIKSGEKVGVVGRTGAGKSSLTNCLFRILESAGGQIIIDGIDVASIGLHDLRERLTIIPQDPILFSGSLRMNLDPFNKYSDEEVWRALELAHLRSFVSGLQLGLLSEVTEGGDNLSIGQRQLLCLGRAVLRKSKILVLDEATAAVDLETDSLIQTTIRKEFSQCTVITIAHRLHTIMDSDKIMVLDNGKIVEYGSPEELLSNRGSFYLMAKEAGIENVNHTEL		Km [3]: 126 µM
